Patent US8772250B2, “Compositions and methods for treating ischemia and ischemia-reperfusion injury” (Ischemix, LLC, priority 2010, dated 2014)
Marks after values point to notes of the source that are not given here.

Assays:
Src = Src (Homo sapiens, UniProt P12931); experiment: Src tyrosine kinase activation assay (mobility shift); type: biochemical
Source text: IGF1R and Src tyrosine kinases have endogenous levels of activity in the presence of ATP and substrate. This activity was readily measured using a mobility shift assay using a Caliper LabChip® 3000 and a 12-sipper LabChip® to detect both phosphorylated and unphosphorylated substrate (Caliper Life Sciences, Discovery Alliances and Services Division). Enzyme, substrate and ATP concentrations were optimized for each assay. For the IGF1R assay, the final concentrations of the enzyme, peptide and ATP were 20 nM, 1.5 μM, and 1220 μM, respectively. For the Src assay, the final concentrations of the enzyme, peptide and ATP were 2.5 nM, 1.5 μM, and 17 μM, respectively.
RLip-EA-OH was evaluated at multiple concentrations for an effect on activation of IGF1 receptor kinase (IGF1R) and Src. The compounds tested activated IGF1R and Src with different selectivities.

[1] = Oxygen Radical Absorbance Capacity (ORAC) assay; details: mean of 3-4 experiments
Source text: Peroxyl radicals are one species of reactive oxygen produced by cells during reperfusion. The presence of peroxyl radicals can be detected by fluorescein oxidation. In the presence of peroxyl radicals, fluorescein fluorescence will decay over time. In the presence of an oxygen radical scavenger, the rate of decay is diminished. The change in the rate of decay between control and in the presence of scavengers is used to measure the peroxyl radical scavenging ability of a test compound.
Each compound tested was diluted to a concentration ranging from 25 μM to 250 μM in 10 mM phosphate buffer (pH=7.4) containing 10 nM fluorescein. The buffer and compound were incubated at 37° C. for 10 minutes. After the incubation, flourescein fluorescence was measured using a plate reader (Molecular Devices Flexstation II, Ex=485, Em=520). Baseline fluorescence measurements were recorded for 15 minutes before 2,2′-azobis(2-methylpropionamidine) dihydrochloride (AAPH) was added. The fluorescence decay was recorded for 90 minutes. The fluorescence decay without compound was subtracted from the fluorescence decay with compound. The slope of the decay vs. concentration is reported as the absorbance capacity.

[2] = test system: myocardial ischemia-reperfusion injury; experiment: Rat model of myocardial I/R injury (MI/AR ratio); type: in vivo; details: for % Reduction in MI/AR Compared to Vehicle: rat IV
Source text: A rat model of myocardial I/R injury was used as an in vivo screen to determine if certain lipoic acid derivative compounds are cardio-protective (e.g., against mycoardial ischemia-reperfusion injury). This model is analogous to the ischemia-reperfusion injury observed in cardiac patients following coronary occlusions and cardiac surgery procedures, such as coronary artery bypass grafting (CABG) (Matsui, T., Tao, J., del Monte, F., Lee, K.-H. et al., Akt Activation Preserves Cardiac Function and Prevents Injury After Transient Cardiac Ischemia In vivo, Circulation 2001, 104:330).
The circumflex branch of the left coronary artery was ligated temporarily to induce regional ischemia in the left ventricular mass, followed by the injection of fluorescent microspheres to delineate the ischemic region. The animals were sacrificed about 24 hours after reperfusion and the hearts were excised, sectioned and stained with triphenyltetrazolium. The direct impact of the pharmacologic intervention was determined by measuring the myocardial infarct area (MI), the ischemic area at risk (AR) and the left ventricular area (LV). The reduction of MI over the AR (MI/AR ratio) was used as the primary measure of drug efficacy relative to vehicle controls.
Male Sprague-Dawley rats between 300 and 350 gm were used for these experiments. Anesthesia was induced with 3-4% isoflurane in an induction chamber. After induction, anesthesia was maintained at a surgical plane with 1.5-2.0% isoflurane, administered by a Rodent Ventilator through a 16-gauge angiocatheter introduced orally into the trachea. The ventilator was set at 2.5 cc at a rate of 60-65 breaths per minute to maintain ventilation during surgery. The core temperature of the animal was monitored and maintained at 37° C. using a rectal probe and a heating lamp attached to a temperature controller.
A left anterior thoracotomy was performed and the heart was exposed using a vertical pericardotomy. The circumflex branch of the left coronary artery (LCx) was ligated approximately 4 mm from the aorta using a cardiovascular 7.0 monofilament suture on an 11 mm needle to induce ischemia in the left ventricle.
Fluorescent microspheres (300 μL) were injected into the left ventricular cavity 10-20 minutes after the ligation to delineate the ischemic area. The suture was removed 30 minutes after ligation to reperfuse the ischemic area and the ischemic area was checked for reperfusion.
The chest was then closed in layers using absorbable suture (Dexon 5-0) for the muscle layers and monofilament Nylon 5-0 suture was used to close the cutaneous layer. The animals were allowed to recover, then were returned to the colony.
Twenty-four hours after reperfusion, anesthesia was induced using ketamine hydrochloride and the chest was opened. The animals were sacrificed with 15% potassium chloride aqueous solution (w/v) injected into the LV cavity to arrest the heart in diastole. The heart was excised distal to the aortic valve and washed with saline to remove the blood. Sagittal slices of the heart were obtained between the base of the ventricle and the apex. Five slices of heart tissue were obtained, each 2 mm thick. The slices were immersed in a 1% 2,3,5-triphenyl-2H-tetrazolium chloride (TTC) in saline solution and then stored in the dark for 30 minutes to stain.
Images of the slices were obtained under bright field (to observe the TTC staining) and under fluorescence (to observe the microspheres). The area at risk was determined by the absence of microspheres and the infarct area was determined by the absence of TTC staining.
In vivo experiments employing a rat model of myocardial I/R injury were performed as described in Example 8. Catheterized (jugular vein) rats were used for intravenous dose administration at time points prior to and/or including 0.25 h.

[3] = test system: myocardial ischemia-reperfusion injury; experiment: Rat model of myocardial I/R injury (MI/AR ratio); type: in vivo; details: for % Reduction in MI/AR Compared to Vehicle: rat IV; remark: listed apart in the source

Src, sequence (P12931 whole entry, species assumed): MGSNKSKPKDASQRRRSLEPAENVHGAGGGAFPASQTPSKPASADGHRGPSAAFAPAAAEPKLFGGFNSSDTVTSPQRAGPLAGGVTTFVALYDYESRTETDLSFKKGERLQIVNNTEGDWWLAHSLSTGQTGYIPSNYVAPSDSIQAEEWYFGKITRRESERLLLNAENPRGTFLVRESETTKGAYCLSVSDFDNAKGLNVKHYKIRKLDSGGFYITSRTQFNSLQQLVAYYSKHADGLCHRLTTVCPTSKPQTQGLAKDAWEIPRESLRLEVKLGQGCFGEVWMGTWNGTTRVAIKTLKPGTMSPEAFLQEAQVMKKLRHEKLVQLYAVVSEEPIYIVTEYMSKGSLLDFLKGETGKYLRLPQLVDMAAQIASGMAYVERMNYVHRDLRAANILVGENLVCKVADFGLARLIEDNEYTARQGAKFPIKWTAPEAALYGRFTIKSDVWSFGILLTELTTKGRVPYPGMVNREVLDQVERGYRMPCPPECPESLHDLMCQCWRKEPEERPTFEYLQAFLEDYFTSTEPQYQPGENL

## C[C@H](NC(=O)[C@H](CCC(=O)O)NC(=O)CCCC[C@@H]1CCSS1)C(=O)O [RLip-EA-OH, N-(R)-lipoyl-L-glutamyl-L- alanine]
Src; 100 μM
  Src % activity above control (±SEM): 70 ± 1%
Src; 300 μM
  Src % Increase in activity above vehicle control: 78 ± 2%
[1]
  ORAC Value relative to RLip-EA-OH: 100 ± 11
  ORAC Value relative to RLip-OH: 131 ± 6^
[2]; Entry 2b: 3 mg/kg (1 h infusion) at −1 h
  % Reduction in MI/AR Compared to Vehicle: 12%
[2]; Entry 5: 15 mg/kg at −0.25 h
  % Reduction in MI/AR Compared to Vehicle: 30* %
[2]; Entry 7: 10 mg/kg at −3 h
  % Reduction in MI/AR Compared to Vehicle: 33* %
[2]; Entry 12: 10 and 10 mg/kg at −3 and −0.25 h
  % Reduction in MI/AR Compared to Vehicle: 43* %
[2]; Entry 13: 20 and 10 mg/kg at −3 and −0.25 h
  % Reduction in MI/AR Compared to Vehicle: 38* %
[2]; Entry 16: 10 and 10 and 10 mg/kg at −3 and −0.25 h and at reperfusion
  % Reduction in MI/AR Compared to Vehicle: 15%
[2]; rat, Table 11: 10 mg/kg at −3 h
  % Reduction in MI/AR compared to vehicle controls: 29%
[2]; rat, multiple dosing 10 mg/kg at −3 h and −0.25 h
  reduction of MI (meta-analysis): 43%
[3]; intravenously (bolus IV and infusion), orally and intra-cardiac
  efficacy in a rat model of I/R injury: efficacious
[3]; Entry 1: 1 mg/kg at −0.25 h
  % Reduction in MI/AR Compared to Vehicle: 3%
[3]; Entry 2a: 3 mg/kg (bolus) at −0.25 h
  % Reduction in MI/AR Compared to Vehicle: 6%
[3]; Entry 3a: 5 mg/kg (bolus) at −0.25 h
  % Reduction in MI/AR Compared to Vehicle: 27* %
[3]; Entry 3b: 5 mg/kg (1 h infusion) at −1 h
  % Reduction in MI/AR Compared to Vehicle: 27* %
[3]; Entry 4a: 10 mg/kg (bolus) at −0.25 h
  % Reduction in MI/AR Compared to Vehicle: 33* %
[3]; Entry 4b: 10 mg/kg (1 h infusion)
  % Reduction in MI/AR Compared to Vehicle: 33* %
[3]; Entry 6: 20 mg/kg at −0.25 h
  % Reduction in MI/AR Compared to Vehicle: 9%
[3]; Entry 8: 10 mg/kg at −6 h
  % Reduction in MI/AR Compared to Vehicle: 24* %
[3]; Entry 9: 10 mg/kg at −24 h
  % Reduction in MI/AR Compared to Vehicle: 24* %
[3]; Entry 10: 20 mg/kg at −3 h
  % Reduction in MI/AR Compared to Vehicle: 26* %
[3]; Entry 11: 40 mg/kg at −3 h
  % Reduction in MI/AR Compared to Vehicle: 17%
[3]; Entry 14: 10 and 10 mg/kg at −24 and −3 h
  % Reduction in MI/AR Compared to Vehicle: 32* %
[3]; Entry 15: 10 and 10 and 10 mg/kg at −24 and −3 and −0.25 h
  % Reduction in MI/AR Compared to Vehicle: 42* %
[3]; Entry 17: 10 and 10 mg/kg at −3 h and at reperfusion
  % Reduction in MI/AR Compared to Vehicle: 34* %
[3]; rat, 1 mg/kg IC, 15 minutes pre-occlusion
  reduction of myocardial tissue death vs saline vehicle: 38%
[3]; rat, 1 mg/kg IC, Table 7 meta analysis
  Reduction of MI:AR Ratio Relative to Vehicle (%): 31 ± 3 %
[3]; rat, 1 mg/kg IC, Table 8
  Reduction of MI:AR Ratio Relative to Vehicle (%): 31 ± 3 %
[3]; rat, 1 mg/kg IC, at reperfusion (within 1 minute after reperfusion)
  reduction of myocardial tissue death vs saline vehicle: 32%
[3]; rat, 1 mg/kg IC, during occlusion (15 minutes after occluding)
  reduction of myocardial tissue death vs saline vehicle: 24%
[3]; rat, 1 mg/kg IC, meta analysis n=64
  MI:AR ratio: 0.250
[3]; rat, 1 mg/kg IC, meta analysis n=64 vs n=54, p<0.001
  reduction of MI/AR vs saline vehicle: 33%
[3]; rat, 1 mg/kg single bolus IC 15 minutes prior to ischemia
  MI/AR: 0.337
[3]; rat, 2 mg/kg single bolus IC 15 minutes prior to ischemia
  MI/AR: 0.290
[3]; rat, B—Single (10_0)
  MI/AR (meta-analysis): 0.261
[3]; rat, C—Multiple (10_10)
  MI/AR (meta-analysis): 0.207
[3]; rat, IV or IC, 15 minutes pre-occlusion
  effect of different doses on myocardial tissue death (MI/AR): significantly (p<0.05) reduced myocardial tissue death and was dose dependent
[3]; rat, Table 11: 10 mg/kg at −0.25 h
  % Reduction in MI/AR compared to vehicle controls: 28%
[3]; rat, Table 11: 10 and 10 mg/kg at −3 and −0.25 h
  % Reduction in MI/AR compared to vehicle controls: 43* %
[3]; rat, single 10 mg/kg IV bolus 15 min before ischemia or at 3 h before ischemia
  reduction in MI damage: ~33%
[3]; rat, single bolus dose 10 mg/kg at −3 h
  reduction of MI (meta-analysis): 29%
